Results taken from US11414663B2, “Micro-RNA profiling, compositions, and methods of treating diseases” (GOWEY RESEARCH GROUP, PLLC, priority 2010, dated 2022).

Tested on: miRNA
Assay: Pre and post microRNA profiles of patients after spine injections of rate limiters
Format: in vivo, human
Details: for Impact on genome using spine injections: spine injections in patients, pre vs post miRNA profiles

Compound	Impact on genome using spine injections	miR-486 level, pre-treatment vs post-treatment profile (spine injections, all other miRNA levels lowered)
N[C@@H](CS)C(=O)O [Cysteine]	Increases ail miRNA	–
N[C@@H](CCC(=O)N[C@@H](CS)C(=O)NCC(=O)O)C(=O)O [Glutathione]	Decrease all miRNA	–
[Mg+2] [Magnesium]	Increases all miRNA	–
[Se] [Selenium]	Increases ail miRNA	–
[Zn] [Zinc]	Decrease all miRNA except miR-486	miR-486 had increased
